Measured values as given in patent US10907159B2, “Methods of treating cancer by inhibition of DNA repair proteins using antisense based therapies” (SARISSA INC., priority 2015, dated 2021).
“Also recorded” adds a separate entry of the source. Like-named read-outs stand apart in the source and are kept apart here. d = 2'-deoxy (DNA); m = 2'-O-methyl

What was measured:
Format in all cases: cell-based, human
A549b cells [1] = assay: Proliferation of A549b cells after OLIGO/siRNA transfection (cell counting); conditions: for relative proliferation: FIG. 12
Experimental: Cultured cell lines were maintained in minimum essential medium a with nucleosides plus 10% fetal bovine serum and penicillin (50 units/mL)/streptomycin (50 mg/L) (growth medium). Cultures were incubated in a humidified atmosphere of 5% CO2 at 37° C. Cultured cell lines were maintained and cytotoxicity assays conducted as described previously (3). Rapidly proliferating cells were utilized for establishing cultures of experimental cells, which were allowed to plate overnight in 25-cm^2 flasks prior to manipulation. An established cell line of non-small-cell lung carcinoma (NSCLC), A549b, which was propagated by serial dilution from a single cell of an A549 parent cell line, was used for the establishment of antisense activity of oligonucleotides. This cell line proliferates with a mean generation time of approximately 20 hours, and is capable of forming tumours in immunodeficient mice with a take rate of greater than 90%. Therefore, this cell line is a good model system that can be used in both in vitro and in vivo experiments to test the activity of OLIGOs.
OLIGOs were introduced into cells with the use of Lipofectamine 2000 (LFA2K) (Invitrogen, Burlington, Ontario, Canada). OLIGOs were mixed with LFA2K at a ratio of 0.2 μg/ml per 10 nM OLIGO. The mixture was prepared at 11× the final concentration to which cells were exposed, so that 200 μL was added to 2 mL of medium in which cells were plated. As controls, cells were exposed to medium alone (no treatment), LFA2K alone at concentrations equivalent to those used in combination with OLIGOs (in some experiments only the maximum LFA2K concentration was used as a control), or OLIGO having no complementarity with any human mRNA. The OLIGO/LFA2K mixtures were then incubated at room temperature for 20 minutes, according to instructions supplied with the LFA2K, followed by addition of the OLIGOs to the cell medium. The OLIGO/LFA2K mix was then incubated (37° C.) on the cells for 4 hours, after which a second volume of medium was added. Cells were then incubated for 20 hours. Following this incubation, the OLIGO-containing medium was replaced with drug-free medium (i.e. medium without OLIGOs) and the cells were incubated for an additional 4 days. Following the 4-day incubation, the proliferation of the treated cells (fold-increase in cell number) was calculated as a percentage of that of control cells. Cell numbers were enumerated on an electronic particle counter (Beckman Coulter, Mississauga, ON). For the purpose of determining the anti-proliferative effect of antisense OLIGOs, the proliferation of cells treated with antisense OLIGOs was calculated as a percent of that of cells treated with an equivalent concentration of non-complementary control OLIGO (in this case OLIGO 32) mixed with an equivalent amount of LFA2K.
OLIGO-containing medium was removed and replaced with fresh medium. Cells were incubated for 4 days, at which time cell number was counted. Proliferation was calculated as a percent of non-targeting OLIGO-treated controls.
Cells were incubated for 4 days, at which time cell number was counted. Proliferation was calculated as a percent of controls.

TS mRNA = assay: RT-qPCR of TS mRNA in A549 cells after OLIGO transfection; conditions: 20 nM OLIGO, 24 hours post-transfection; FIG. 16
Experimental: (§1) Briefly, A549 cells seeded at a density of 2.0×10^5 per flask were transfected with 20 nM of OLIGO specific for each target or control OLIGO using Lipofectamine 2000 as the transfection reagent. Twenty four hours post-transfection mRNA was extracted and reverse transcribed into cDNA. RT-qPCR was performed for target mRNA levels using TaqMan reagents according to established protocols.

BRCA2 mRNA = assay: RT-qPCR of BRCA2 mRNA in A549 cells after OLIGO transfection; conditions: 20 nM OLIGO, 24 hours post-transfection; FIG. 16
Experimental: as §1

A549b cells [2] = assay: cells; conditions: Homo sapiens, curves extrapolated, unit inferred, read-out: concentration of olaparib required to inhibit proliferation of A549b cells by 50% (IC50)
Experimental: OLIGOs were introduced into cells with the use of Lipofectamine 2000 (LFA2K) (Invitrogen, Burlington, Ontario, Canada). OLIGOs were mixed with LFA2K at a ratio of 0.2 μg/ml per 10 nM OLIGO. The mixture was prepared at 11× the final concentration to which cells were exposed, so that 200 μL was added to 2 mL of medium in which cells were plated. After incubating at room temperature for 20 minutes, according to manufacturer's instructions, the OLIGOs were added to the cell medium. The OLIGO/LFA2K mix was then incubated (37° C.) on the cells for 4 hours, after which a second volume of medium was added. Cells were then incubated for 20 hours. Following this incubation, the OLIGO-containing medium was replaced with OLIGO-free medium.
For cells treated with the drug olaparib, for the purposes of determining whether inhibitory activity was enhanced by the OLIGO pretreatment, olaparib was added at this time, in concentrations of from 0.01 μM to 3 μM. At this point, replicate flasks from the OLIGO-treatment were used to enumerate cell content, as this varied among treatments over the initial 24-hour exposure. This was done so that the effect of treatment with olaparib could be ascertained based on the cell population that was present at the time of initiation of exposure to olaparib. Exposure to the olaparib was initiated by addition of 0.2-volume of a preparation of the drug, at 6× final concentration in growth medium, to the fresh drug-free medium on the cells (1 ml of drug into 5 ml of medium). Following a further 4-day incubation, the proliferation of the treated cells (fold-increase in cell number) was calculated as a percentage of that of control cells. Cell numbers were enumerated on an electronic particle counter (Beckman Coulter, Mississauga, ON). As indicated in Example 1, for the purpose of determining the anti-proliferative effect of antisense OLIGOs alone, the proliferation of cells treated with antisense OLIGOs was calculated as a percent of that of cells treated with an equivalent concentration of non-complementary control OLIGO (in this case OLIGO 32). However, for the purpose of determining the anti-proliferative effect of olaparib against antisense or non-complementary (control) OLIGO-treated cells, the proliferation was calculated as a percent of cells treated with the respective OLIGO.
These experiments were carried out essentially as described in Example 3, with the following changes. The drug tested was cisplatin instead of olaparib, and cisplatin was tested in concentrations ranging from 0.5 μM to 2 μM.
These experiments were carried out essentially as described in Example 3, with the following changes. The drug tested was melphalan in concentrations ranging from 2 μM to 10 μM.
These experiments were carried out essentially as described in Example 3, with the following changes. The drug tested was carboplatin at concentrations ranging from 5 μM to 40 μM.
These experiments were carried out essentially as described in Example 3, with the following changes. The drug tested was oxaliplatin was tested in concentrations ranging from 0.2 μM to 2.5 μM.
Cisplatin was added to the final concentration indicated, and as described in Example 3. Cells were incubated for 4 days, at which time cell number was counted. Proliferation was calculated as a percent of siRNA-treated, non-cisplatin-treated controls.

SKOV-3 cells = assay: Cell proliferation assay, ASO transfection and/or drug (cell counting); conditions: single olaparib treatment, 96 hours; FIG. 27C
Experimental: FIG. 24 illustrates that BRCA2 inhibition sensitizes ovarian cancer and breast cancer cell lines to olaparib treatment. SKOV-3 (A) and CaOV3 (B) cells were transfected with control ASO (•) or BRCA2 ASO (∘) and then treated with three different concentrations of olaparib. Proliferation was determined by cell counting 96 hours post-transfection (*p<0.05). C: BRCA2 mRNA levels were measured by qPCR 24 hours following BRCA2 ASO transfection in SKOV-3, CaOV3, 211 H and H2052 cell lines.
E: SKOV-3 cells were transfected with control or BRCA2 ASO and then treated with olaparib 24 hours post transfection. Ninety-six hours post transfection, cells were counted, plated, and re-transfected with control ASO or BRCA2 ASO and re-treated with olaparib. Cell counts were performed 96 hours post transfection (*p<0.05). […]
A: BRCA2-wild type SKOV-3 cells (black bars), […] MCF-7 cells (white bars), and BRCA2-mutated CAPAN-1 cells (grey bars) were treated simultaneously but separately with BRCA2 ASO (20 nM). […] Ninety-six hours post-transfection, cells were counted and proliferation determined (% of proliferation after control ASO treatment).
C: SKOV-3, MCF-7 and CAPAN-1 cells were treated with two different concentrations of olaparib for 96 hours. After drug treatment they were counted and proliferation was determined as a percent of that of vehicle-treated cells. […]

MCF-7 cells = assay: Cell proliferation assay, ASO and/or olaparib (cell counting); conditions: single olaparib treatment, 96 hours, vs vehicle; FIG. 27C
Experimental: (§2) A: BRCA2-wild type SKOV-3 cells (black bars), […] MCF-7 cells (white bars), and BRCA2-mutated CAPAN-1 cells (grey bars) were treated simultaneously but separately with BRCA2 ASO (20 nM). Due to differing growth medium requirements and to avoid fluorescent label-induced changes in drug sensitivity, cells were not co-cultured. They were treated independently, at the same time with the same materials. Ninety-six hours post-transfection, cells were counted and proliferation determined (% of proliferation after control ASO treatment).
(§3) C: SKOV-3, MCF-7 and CAPAN-1 cells were treated with two different concentrations of olaparib for 96 hours. After drug treatment they were counted and proliferation was determined as a percent of that of vehicle-treated cells.
FIG. 28 illustrates combined BRCA2 ASO and olaparib treatment decreases the proliferation of both HRR-deficient and HRR-proficient cells. […] Proliferation was determined using cell counting 96 hours post-transfection.
Four hours post-transfection, cells were seeded into 6 well dishes in appropriate experimental groups. […] Ninety-six hours post transfection, cells were collected and counted (Coulter Particle Counter). Proliferation was determined based on initial cell density and calculated as a percentage of ASO+vehicle treated cells.

CAPAN-1 cells = assay: Cell proliferation assay, ASO and/or drug (cell counting); conditions: single olaparib treatment, 96 hours, vs vehicle; FIG. 27C
Experimental: as §2, §3
Four hours post-transfection, cells were seeded into 6 well dishes in appropriate experimental groups. Twenty-four hours post transfection, cells were treated with olaparib (Selleckchem) at three concentrations. Ninety-six hours post transfection, cells were collected and counted (Coulter Particle Counter). Proliferation was determined based on initial cell density and calculated as a percentage of ASO+vehicle treated cells.

[3] = system: mixed cell population SKOV-3^shBRCA2:SKOV-3^shControl 3:1; assay: Co-culture model of BRCA2 heterogeneity, proliferation; conditions: 2.5 μM, FIG. 29A
Experimental: (§4) A: SKOV-3^shBRCA2 cells (low BRCA2) were mixed with SKOV-3^shControl cells (high BRCA2) at a 3:1 ratio, resulting in a primarily HRR-deficient mixed cell population. Parental and mixed populations were treated for the first time with olaparib (1° olaparib, 2.5 μM) or vehicle. Cells were re-plated at equal density 96 hours post-treatment. Parental and mixed populations were then treated a second time with olaparib (2° olaparib, 2.5 μM) or control vehicle. Ninety-six hours post-treatment, proliferation for all groups was determined based on cell counts and seeding density following 1° olaparib or vehicle treatment. White bars: 2° olaparib. Black bars: no 2° olaparib.
B: SKOV-3^shBRCA2 cells (low BRCA2), SKOV-3^shControl cells (high BRCA2), and a mixed cell population (3:1, low BRCA2:high BRCA2) were transfected with control ASO or BRCA2 ASO followed by treatment with vehicle or olaparib (2.5 μM). Proliferation (percent of control ASO-treated cells) was determined 96 hours post-transfection. […]
(§5) To mimic a heterogeneous tumor cell population that is predominantly HRR-deficient, we co-cultured SKOV-3^shBRCA2 (low BRCA2) and SKOV-3^shcontrol (high BRCA2) in a 3:1 ratio. The mixed cell population, along with unmixed SKOV-3^shBRCA2 and SKOV-3^shcontrol populations, was treated with olaparib (1° Olaparib), then counted, re-seeded and treated with olaparib a second time (2° Olaparib) (FIG. 32).

[4] = system: SKOV-3^shBRCA2 cells (low BRCA2); assay: Co-culture model, unmixed population, proliferation; conditions: olaparib 2.5 μM; FIG. 29A
Experimental: as §4, §5

## 5′-UUAUCCAGGACAUCACUGC-3′ [RADb]
A549b cells [1]; siRNA at 2 nM, FIG. 21
  inhibited proliferation of A549b cells: over 50%

## 5′-gccaguGGCAACATccuuaa-3′ (antisense GCCAGUGGCAACATCCUUAA; sugars from the 5' end m6 d8 m6, all phosphorothioate, methylation of C not given here) [OLIGO 83]
A549b cells [1]; 20 nM OLIGO 83, vs OLIGO 491S
  relative proliferation: approximately 20%
TS mRNA
  effect on TS mRNA level: reduction in TS mRNA
BRCA2 mRNA
  effect on BRCA2 mRNA level: no significant effect on BRCA2 mRNA

## 5′-ugcccgATACACAAacgcug -3′ (UGCCCGATACACAAACGCUG; gapmer, lower-case wings modified, type not given here) [BR3]
A549b cells [1]; 10 nM of BR3, vs equivalent concentration of OLIGO 491S
  relative proliferation: approximately 85%
A549b cells [1]; A549/A549b cells, 4 h transfection, counted after 4 d, vs non-targeting control OLIGO
  anti-proliferative effect as single agent: inhibit proliferation of human non-small cell lung cancer A549 cells in a concentration-dependent manner; also recorded: antiproliferative on its own

## O=C(c1cc(Cc2n[nH]c(=O)c3ccccc23)ccc1F)N1CCN(C(=O)C2CC2)CC1 [olaparib, reference compound]
A549b cells [2]; in the absence of BR1 (control OLIGO 32)
  IC50: ~5000 nM
A549b cells [2]; in the presence of BR1 pretreatment
  IC50: ~50 nM
SKOV-3 cells
  effect of olaparib on proliferation: no effect on SKOV-3 proliferation
MCF-7 cells
  decreased the proliferation: 39%±6.8%
CAPAN-1 cells
  decreased the proliferation: 94%±4.6%
[3]; 1° olaparib
  response to initial olaparib treatment: sensitive to initial treatment with olaparib
[3]; 2° olaparib
  response to second olaparib treatment: completely unresponsive to a second treatment
[4]
  response to olaparib after two treatments: remained sensitive to olaparib even after two treatments
